Assay results taken from patent US8748101B2, “Methods, compositions, and devices utilizing MicroRNA to determine physiological conditions” (Battelle Memorial Institute, priority 2008, dated 2014).

Legend:
[1] = test system: male C57/B6 mice; conditions: mouse, in vivo
Procedure: Quantitative PCR (QPCR) with microRNA specific primer sets were used to confirm the results from array hybridization. In brief, a SYBR Green based method, miScript real-time PCR (Qiagen Inc. Valencia, Calif., USA), or TaqMan primer set from Apply Biosystems, was used with 50 ng of total RNA from each sample. The first strand cDNA was generated according to the manufacturer's instruction. Approximately 2.5 ng of cDNA was used in the PCR reaction. The yield of 18 to 20 base pair fragments (based on SYBR Green intensity) corresponding to the specific microRNA species was monitored with the 7900HT fast real-time PCR system from Applied Biosystems (Applied Biosystems, Foster City, Calif.). QPCR results were analyzed by SDS 2.2.2, with a manual CT threshold value of 0.2.
The male C57/B6 mice were randomly grouped into nine different groups with 4 animals in each group. […] Mice were sacrificed and plasma samples were collected at 1, 3 and 24 hours post-exposure. The nine groups were: 1) 1 hour control; 2) 1 hour treatment 1; 3) 1 hour treatment 2; 4) 1 hour treatment 3; 5) 3 hour control; 6) 3 hour treatment 1; 7) 3 hour treatment 2; 8) 3 hour treatment 3; and 9) 24 hour treatment 3. […] The expression levels of two different microRNA sequences, mir-486 and mir-122, in the serum were profiled by quantitative polymerase chain reactions (Q-PCR). […]

[2] = test system: male C57/B6 mice; assay: microRNA profile of plasma, acetaminophen treatment group vs control group; format: in vivo; conditions: 300 mg/kg single intraperitoneal injection, 24 hours post exposure, FIG. 3
Procedure: Approximately, 800 μl of QIAzol lysis reagent was added to 200 μl liquid sample. The sample was mixed in a tube followed by adding 200 μl of chloroform. After mixing rigorously for 15 seconds, the sample was then centrifuged at 12,000×g for 15 minutes. The upper aqueous phase was carefully transferred to a new collection tube, and 1.5 total volumes of ethanol was added. The sample was then applied directly to a glass membrane containing column and the RNA was bound and purified by three contiguous washing to remove unwanted contamination. The immobilized RNA was then collected from the membrane with a low salt elution buffer.
The male C57/B6 mice were randomly grouped into two groups, a treatment group (3 animals) and control group (4 animals). […] Mice were sacrificed at 24 hours post exposure, the plasma samples were collected and RNA was isolated.
The expression levels of microRNA sequences in the serum were used to make a microRNA profile. The differentially expressed microRNA sequences between the treatment group and the control group were clustered with the Hierarchical clustering method and is shown in FIG. 3.

SMILES: CC(=O)Nc1ccc(O)cc1 [acetaminophen]
- mir-486 and mir-122 intensities at one hour [1]: Clear changes
- levels of microRNA sequences in serum/plasma, treatment vs control [2]: levels of certain microRNA sequences in the serum could be used as an indication of the acetaminophen toxicity
